{
  "source": "patent US20190225989A1",
  "about": "“GENE KNOCKIN METHOD AND KIT FOR GENE KNOCKIN” (Institute of Hematology and Blood Disease Hospital, CAMS & …, priority 2018, published 2019)",
  "type_in_all_cases": "cell-based, human",
  "key": {"[1]": {"test_system": "CTNNB1 locus in the H1 ES cells", "assay": "Effects of small molecules on HDR efficiency, FACS", "settings": "FACS day 3; for effect on HDR efficiency at the CTNNB locus: donor pD-mNeonGreen-sg-HA300-300 bp, added first 24 h: RS-1 10 μM, Nu7441 2 μM, SCR7 1 μM, Brefeldin A 0.1 μM, L755507 5 μM", "method": "(§1) In this experiment, the H1 ES cells were evenly split into eight wells after nucleofection with Cas9/sgRNA and the relevant double cut donor (pD-mNeonGreen-sg-HA300-300 bp or pD-GFP-sg-HA300-300 bp). DMSO control (0.1%), RS-1 (10 μM), Nu7441 (2 μM), SCR7 (1 μM), Brefeldin A (0.1 μM), L755507 (5 μM), Nocodazole (100 ng/mL), or Nu7441 (2 μM) and SCR7 (1 μM) were added in the wells for the first 24 h and then the medium was changed with fresh medium thereafter. Three days after nucleofection, cells were harvested for FACS analysis to determine the HDR efficiency in each condition."}, "[2]": {"test_system": "PRDM14 locus in the H1 ES cells", "assay": "Effects of small molecules on HDR efficiency, FACS", "settings": "FACS day 3; for effect on HDR efficiency at the PRDM14 locus: donor pD-GFP-sg-HA300-300 bp, added first 24 h: RS-1 10 μM, Nu7441 2 μM, SCR7 1 μM, Brefeldin A 0.1 μM, L755507 5 μM", "method": "as §1"}, "CTNNB1 locus in iPSCs [3]": {"test_system": "CTNNB1 locus in iPSCs", "assay": "Effects of small molecules and factors on HDR efficiency, FACS", "settings": "for effect on HDR efficiency at the CTNNB locus: donor pD-mNeonGreen-sg-HA300-300 bp, added first 24 h: RS-1 10 μM, Nu7441 2 μM, SCR7 1 μM, Brefeldin A 0.1 μM, L755507 5 μM", "text": "(§2) In this experiment, the verified highly efficient pD-sg-HA300-300 bp double cut donor and multiple small molecules were used to examine the effects on HDR of both the CTNNB1 and PRDM14 loci in iPSCs. Multiple small molecules include RS-1 (a stimulator of human homologous recombination protein RAD51), NU7441 (a DNA-PKcs inhibitor), SCR7 (a DNA ligase IV inhibitor), Brefeldin A, L755507, and\nas §1, with “iPSCs” for “In this experiment, the H1 ES cells”\n(§3) The plasmid encoding RAD51, Ad4E1B-Eorf46, or CCND1 was co-transfected with Cas9, sgRNA, and donor plasmid (pD-mNeonGreen-sg-HA300-300 bp or pD-GFP-sg-HA300-300 bp). Three days after transfection, cells were harvested for FACS analysis to determine the HDR efficiency in each condition.\n(§4) In this experiment, CCND1 and Nocodazole were used together to examine the effects on HDR of both the CTNNB1 and PRDM14 loci in iPSCs. The plasmid encoding CCND1 was co-transfected with Cas9, sgRNA, and donor plasmid (pD-mNeonGreen-sg-HA300-300 bp or pD-GFP-sg-HA300-300 bp). Nocodazole (100 ng/mL) was added into the medium at 0-24 h after transfection. Three days after incubation, cells were harvested for FACS analysis to determine the HDR efficiency in each condition."}, "PRDM14 locus in iPSCs [4]": {"test_system": "PRDM14 locus in iPSCs", "assay": "Effects of small molecules and factors on HDR efficiency, FACS", "text": "as §2\nas §1, with “iPSCs” for “In this experiment, the H1 ES cells”\nas §3, §4"}, "PRDM14 locus in iPSCs [5]": {"test_system": "PRDM14 locus in iPSCs", "assay": "sgRNA cleavage efficiency at PRDM14", "settings": "cleavage site 4 bp downstream of the stop codon, data not shown"}, "CTNNB1 locus in iPSCs [6]": {"test_system": "CTNNB1 locus in iPSCs", "assay": "sgRNA cleavage efficiency at CTNNB1", "settings": "targets 39 bp before the stop codon, data not shown"}, "[7]": {"settings": "donor pD-GFP-sg-HA300-300 bp, added first 24 h: RS-1 10 μM, Nu7441 2 μM, SCR7 1 μM, Brefeldin A 0.1 μM, L755507 5 μM, FACS day 3, vs DMSO"}, "[8]": {"settings": "Nocodazole 100 ng/mL first 24 h"}, "[9]": {"settings": "Nocodazole 100 ng/mL first 24 h, FACS day 3, vs DMSO, P<0.001"}},
  "data": [
    {"molecule": "O=c1[nH]c(=S)[nH]c(N=Cc2ccccc2)c1N=Cc1ccccc1", "note": "[SCR7]", "values": [
      {"measurement": "effect on HDR efficiency at the CTNNB locus", "setting": "[1]", "result": "did not show significant improvement"},
      {"measurement": "effect on HDR efficiency at the PRDM14 locus", "setting": "[2]", "result": "did not show significant improvement"},
      {"measurement": "effect on HDR efficiency at the CTNNB locus", "setting": "CTNNB1 locus in iPSCs [3]; FACS day 3, vs DMSO", "result": "did not show significant improvement"},
      {"measurement": "effect on HDR efficiency at the PRDM14 locus", "setting": "PRDM14 locus in iPSCs [4]; [7]", "result": "did not show significant improvement"}
    ]},
    {"molecule": "CCCCCCNC(=O)Nc1ccc(S(=O)(=O)Nc2ccc(CCNC[C@H](O)COc3ccc(O)cc3)cc2)cc1", "note": "[L755507]", "values": [
      {"measurement": "effect on HDR efficiency at the CTNNB locus", "setting": "[1]", "result": "did not show significant improvement"},
      {"measurement": "effect on HDR efficiency at the PRDM14 locus", "setting": "[2]", "result": "did not show significant improvement"},
      {"measurement": "effect on HDR efficiency at the CTNNB locus", "setting": "CTNNB1 locus in iPSCs [3]; FACS day 3, vs DMSO", "result": "did not show significant improvement"},
      {"measurement": "effect on HDR efficiency at the PRDM14 locus", "setting": "PRDM14 locus in iPSCs [4]; [7]", "result": "did not show significant improvement"}
    ]},
    {"molecule": "O=C(Nc1ccc(Br)cc1)c1ccc(Br)c(S(=O)(=O)NCc2ccccc2)c1", "note": "[RS-1]", "values": [
      {"measurement": "effect on HDR efficiency at the CTNNB locus", "setting": "[1]", "result": "did not show significant improvement"},
      {"measurement": "effect on HDR efficiency at the PRDM14 locus", "setting": "[2]", "result": "did not show significant improvement"},
      {"measurement": "effect on HDR efficiency at the CTNNB locus", "setting": "CTNNB1 locus in iPSCs [3]; FACS day 3, vs DMSO", "result": "did not show significant improvement"},
      {"measurement": "effect on HDR efficiency at the PRDM14 locus", "setting": "PRDM14 locus in iPSCs [4]; [7]", "result": "did not show significant improvement"}
    ]},
    {"molecule": "sgPRDM14: sgRNA targeting the sequence surrounding the PRDM14 stop codon, GAAGACTACTAGCCCTGCC (SEQ ID NO: 11) (listed as DNA, chemistry not given here)", "values": [
      {"measurement": "cleavage efficiency", "setting": "PRDM14 locus in iPSCs [5]", "result": "~30", "unit": "%"}
    ]},
    {"molecule": "O=c1cc(N2CCOCC2)oc2c(-c3cccc4c3sc3ccccc34)cccc12", "note": "[Nu7441, NU7441]", "values": [
      {"measurement": "effect on HDR efficiency at the CTNNB locus", "setting": "[1]", "result": "less pronounced improvement"},
      {"measurement": "effect on HDR efficiency at the PRDM14 locus", "setting": "[2]", "result": "only at the CTNNB locus"},
      {"measurement": "effect on HDR efficiency at the CTNNB locus", "setting": "CTNNB1 locus in iPSCs [3]; FACS day 3, vs DMSO", "result": "less pronounced improvement"},
      {"measurement": "effect on HDR efficiency at the PRDM14 locus", "setting": "PRDM14 locus in iPSCs [4]; [7]", "result": "only at the CTNNB locus"}
    ]},
    {"molecule": "C[C@H]1CCC/C=C/[C@@H]2C[C@H](O)C[C@H]2[C@H](O)/C=C/C(=O)O1", "note": "[Brefeldin A]", "values": [
      {"measurement": "effect on HDR efficiency at the CTNNB locus", "setting": "[1]", "result": "less pronounced improvement"},
      {"measurement": "effect on HDR efficiency at the PRDM14 locus", "setting": "[2]", "result": "only at the CTNNB locus"},
      {"measurement": "effect on HDR efficiency at the CTNNB locus", "setting": "CTNNB1 locus in iPSCs [3]; FACS day 3, vs DMSO", "result": "less pronounced improvement"},
      {"measurement": "effect on HDR efficiency at the PRDM14 locus", "setting": "PRDM14 locus in iPSCs [4]; [7]", "result": "only at the CTNNB locus"}
    ]},
    {"molecule": "COC(=O)Nc1nc2ccc(C(=O)c3cccs3)cc2[nH]1", "note": "[Nocodazole]", "values": [
      {"measurement": "increase of HDR efficiency at the CTNNB locus", "setting": "[1]; [8]", "result": "~50", "unit": "%"},
      {"measurement": "increase of HDR efficiency at the PRDM14 locus", "setting": "[2]; [8]", "result": "~50", "unit": "%"},
      {"measurement": "increase of HDR efficiency at the CTNNB locus", "setting": "CTNNB1 locus in iPSCs [3]; [9]", "result": "~50", "unit": "%"},
      {"measurement": "increase of HDR efficiency at the PRDM14 locus", "setting": "PRDM14 locus in iPSCs [4]; [9]", "result": "~50", "unit": "%"}
    ]},
    {"molecule": "sgCTNNB1: sgRNA targeting 39 bp before the CTNNB1 stop codon, GCTGATTGCTGTCACCTGG (SEQ ID NO: 5) (listed as DNA, chemistry not given here)", "values": [
      {"measurement": "cleavage efficiency", "setting": "CTNNB1 locus in iPSCs [6]", "result": 60, "unit": "%"}
    ]},
    {"molecule": "RAD51: key factor in the homologous recombination pathway, given as EF1-driven expression plasmid (protein, UniProt Q06609 2-339, looked up, expressed from EF1 plasmid) DNA repair protein RAD51 …: AMQMQLEANADTSVEEESFGPQPISRLEQCGINANDVKKLEEAGFHTVEAVAYAPKKELINIKGISEAKADKILAEAAKLVPMGFTTATEFHQRRSEIIQITTGSKELDKLLQGGIETGSITEMFGEFRTGKTQICHTLAVTCQLPIDRGGGEGKAMYIDTEGTFRPERLLAVAERYGLSGSDVLDNVAYARAFNTDHQTQLLYQASAMMVESRYALLIVDSATALYRTDYSGRGELSARQMHLARFLRMLLRLADEFGVAVVITNQVVAQVDGAAMFAADPKKPIGGNIIAHASTTRLYLRKGRGETRICKIYDSPCLPEAEAMFAINADGVGDAKD", "values": [
      {"measurement": "effect on HDR efficiency at the CTNNB1 locus", "setting": "CTNNB1 locus in iPSCs [3]; expression plasmid co-transfected with Cas9, sgRNA and pD-mNeonGreen-sg-HA300-300 bp, FACS day 3, P<0.001", "result": "significantly decreased"},
      {"measurement": "effect on HDR efficiency at the PRDM14 locus", "setting": "PRDM14 locus in iPSCs [4]; expression plasmid co-transfected with Cas9, sgRNA and pD-GFP-sg-HA300-300 bp, FACS day 3, P<0.001", "result": "significantly decreased"}
    ]}
  ]
}
